Measurements as given in US20250236589A1, “THERAPEUTIC PHENETHYLAMINE COMPOSITIONS AND METHODS OF USE” (Cybin IRL Limited, priority 2022, published 2025).

Key:
5-HT2A receptor = 5-HT2A receptor (Homo sapiens (Human), UniProt P28223); assay: 5-HT2A radioligand binding ([125I](±)DOI)
[1] = In vitro liver microsome stability (RLM); assay type: in vitro ADME; conditions: rat, rat liver microsomes, 0.5 mg/mL microsomes, NADPH, read-out: RLM, t1/2
Method: In vitro stability was determined in Human (HLM), Rat (RLM), Mouse (MsLM), and dog (DLM) Liver Microsomes. All liver microsomes were purchased from a commercial supplier (e.g. XenoTech). The reaction mixture, minus NADPH, was prepared as described below. The test compound was added into the reaction mixture at a final concentration of 1 μM or co-dosed with their deuterated analog(s) at 1 μM each. The control compound, testosterone, was run simultaneously with the test compound in a separate reaction. The reaction mixture (without cofactor) was equilibrated in a shaking water bath at 37° C. for 5 minutes. The reaction was initiated by the addition of the cofactor, and the mixture was incubated in a shaking water bath at 37° C. Aliquots (150 μL) were withdrawn at 0, 5, 10, 20, 30, 60, and 120 minutes. Test compound and testosterone samples were immediately combined with 150 μL of ice-cold acetonitrile (ACN) containing 0.1% formic acid and internal standard to terminate the reaction. The samples were then mixed and centrifuged to precipitate proteins. All samples were assayed by LC-MS/MS using electrospray ionization. The peak area response ratio (PARR) of analyte to internal standard at each time point was compared to the PARR at time 0 to determine the percent remaining at each time point. Half-lives were calculated using GraphPad software, fitting to a single-phase exponential decay equation.

MAO-A = MAO-A (Homo sapiens (Human), UniProt P21397); assay: Recombinant human MAO-A activity (stability); assay type: in vitro ADME; conditions: hrMAO 0.02 mg/mL, read-out: MAO-A, t1/2
Method: hrMAO-A and MAO control were purchased from XenoTech. The reaction mixture was prepared as described below. The test compound was added into the reaction mixture at a final concentration of 1 μM or co-dosed with their deuterated analog at 1 μM each. The positive control kynuramine (25 μM) was run simultaneously with the test compound in a separate reaction. The reaction mixture (without test compounds or kynuramine) was equilibrated in a shaking water bath at 37° C. for 5 minutes. The reaction was initiated by the addition of the test compound or kynuramine, and the mixture was incubated in a shaking water bath at 37° C. Aliquots (150 μL) of the test compound reaction mixture were withdrawn at 0, 5, 10, 20, 30, 60, and 120 minutes. Aliquots (150 μL) of the positive control reaction mixture were withdrawn at 0 and 30 minutes. Test compound(s) and kynuramine samples were immediately combined with 150 μL of ice-cold 100% acetonitrile containing 0.1% formic acid and internal standard (0.2 μM metoprolol) to terminate the reaction. The samples were then mixed and centrifuged to precipitate proteins. All samples were assayed by LC-MS/MS. The peak area response ratio (PARR) of analyte to internal standard at each time point was compared to the PARR at time 0 to determine the percent remaining at each time point. Half-lives were calculated using GraphPad software, fitting to a single-phase exponential decay equation.

human alpha2A receptor = human alpha2A receptor (Homo sapiens (Human), UniProt P08913); assay: alpha2A receptor binding ([3H]rauwolscine)
Chain of human alpha2A receptor (P08913 whole entry): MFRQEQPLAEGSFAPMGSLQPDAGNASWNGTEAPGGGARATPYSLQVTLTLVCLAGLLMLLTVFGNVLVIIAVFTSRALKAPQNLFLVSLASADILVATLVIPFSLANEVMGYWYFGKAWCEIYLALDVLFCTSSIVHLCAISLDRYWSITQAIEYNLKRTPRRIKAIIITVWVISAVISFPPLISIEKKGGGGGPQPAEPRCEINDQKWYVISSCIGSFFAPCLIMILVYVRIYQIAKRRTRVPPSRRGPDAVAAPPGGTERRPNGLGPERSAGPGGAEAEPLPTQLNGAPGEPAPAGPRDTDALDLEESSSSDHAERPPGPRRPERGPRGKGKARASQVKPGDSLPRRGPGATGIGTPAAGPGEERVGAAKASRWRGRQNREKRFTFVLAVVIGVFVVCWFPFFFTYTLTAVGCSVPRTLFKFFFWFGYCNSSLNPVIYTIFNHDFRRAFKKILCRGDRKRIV

Chain of MAO-A (P21397 whole entry, looked up): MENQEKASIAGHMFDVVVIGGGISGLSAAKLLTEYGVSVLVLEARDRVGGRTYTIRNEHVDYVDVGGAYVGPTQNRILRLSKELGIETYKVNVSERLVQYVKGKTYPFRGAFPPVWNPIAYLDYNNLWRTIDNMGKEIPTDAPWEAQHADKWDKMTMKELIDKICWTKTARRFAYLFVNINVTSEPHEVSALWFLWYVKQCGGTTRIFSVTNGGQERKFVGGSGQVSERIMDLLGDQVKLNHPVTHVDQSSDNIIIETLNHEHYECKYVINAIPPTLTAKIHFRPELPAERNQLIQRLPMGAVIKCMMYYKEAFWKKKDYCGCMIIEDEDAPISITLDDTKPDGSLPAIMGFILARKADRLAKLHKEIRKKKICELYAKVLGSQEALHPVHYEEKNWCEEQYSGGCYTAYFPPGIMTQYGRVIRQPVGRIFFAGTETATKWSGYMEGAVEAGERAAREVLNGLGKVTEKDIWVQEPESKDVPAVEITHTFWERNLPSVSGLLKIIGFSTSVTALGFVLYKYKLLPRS

In the case of `COc1cc(SC(F)(F)F)c(OC)cc1CCN` [Compound I-1, 2-(2,5-dimethoxy-4-((trifluoromethyl)thio)phenyl)ethan-1-amine], the inhibition at 10 µM (5-HT2A receptor) is reported as greater than 80%, the “binding selectivity for 5-HT2A over 5-HT2B” value (5-HT2A receptor; Ki, [125I]DOI) is reported as roughly 19 fold and the Ki (5-HT2A receptor; radioligand [125I](±)DOI) is reported as 0.35 nM. For the same molecule, the half-life at 1 μM [1] was 55.2 min, the half-life at 1 μM (MAO-A) was greater than 120 min and the Ki (human alpha2A receptor) was 66 nM.
